# Measurements from article PMC9297976 (Journal of Applied Toxicology, 2021).
# Experiments:
# [1] = biological target: T1, medaka ARβ (mArβ) (Oryzias latipes, UniProt D1MV73); assay: Medaka ARβ reporter gene assay, agonist assay; assay type: cell-based, Japanese medaka (Oryzias latipes)
# T1 sequence (D1MV73 1-744): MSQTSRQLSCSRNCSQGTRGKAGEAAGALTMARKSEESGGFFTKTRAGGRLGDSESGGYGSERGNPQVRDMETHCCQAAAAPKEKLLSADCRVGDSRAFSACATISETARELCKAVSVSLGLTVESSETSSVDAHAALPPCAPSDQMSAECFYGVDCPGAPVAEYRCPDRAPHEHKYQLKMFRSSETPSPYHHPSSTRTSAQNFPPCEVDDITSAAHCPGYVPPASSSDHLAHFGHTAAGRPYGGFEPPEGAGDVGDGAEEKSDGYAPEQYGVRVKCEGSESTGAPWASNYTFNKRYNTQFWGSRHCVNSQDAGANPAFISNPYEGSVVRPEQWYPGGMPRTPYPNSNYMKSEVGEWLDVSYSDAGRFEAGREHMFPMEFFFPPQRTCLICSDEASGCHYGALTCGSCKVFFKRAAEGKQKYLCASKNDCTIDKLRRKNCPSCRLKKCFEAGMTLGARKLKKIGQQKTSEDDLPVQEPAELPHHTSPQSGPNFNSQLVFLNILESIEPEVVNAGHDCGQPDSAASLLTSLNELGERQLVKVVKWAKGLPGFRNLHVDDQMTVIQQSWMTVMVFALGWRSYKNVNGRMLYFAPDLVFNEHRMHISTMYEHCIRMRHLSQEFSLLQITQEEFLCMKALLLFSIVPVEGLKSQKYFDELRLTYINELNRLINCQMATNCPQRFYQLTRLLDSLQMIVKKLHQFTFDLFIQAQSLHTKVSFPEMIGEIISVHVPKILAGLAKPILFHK
# [2] = biological target: T1, medaka ARβ (mArβ); assay: Medaka ARβ reporter gene assay, antagonist assay; assay type: cell-based, Japanese medaka (Oryzias latipes); details: 11‐KT spiked at 50 nM (D); MAC = 1.0 × 10^−5 M
# [3] = system: Japanese medaka (Oryzias latipes); assay: Fish Short‐Term Reproduction Assay; assay type: in vivo; details: for GSI Female / GSI Male / HSI Female / HSI Male / Length Female / Length Male / Weight Female / Weight Male: completion of exposure
# [4] = measured concentration 25.3 μg/L
# [5] = measured concentration 82.3 μg/L
# [6] = measured concentration 250 μg/L
structure (smiles),measurement,setting,value
"CC(C)(C)CC(C)(C)c1ccc(O)cc1 [Chemical 4tOP, 4‐tert‐Octylphenol]",Agonistic activity,[1]; MAC = 1.0 × 10^−5 M,NE (MAC = 1.0 × 10^−5 M)
same,Antagonistic activity,[2],NE (MAC = 1.0 × 10^−5 M)^(D)
same,Fertility rate,"[3]; 25.3 μg/L measured, 21 d",91 ± 5.1%
same,"Hepatic VTG, female","[3]; 25.3 μg/L measured, 21 d","3,710 ± 617 ng/mg‐liver"
same,"Hepatic VTG, male","[3]; 25.3 μg/L measured, 21 d",3.2 ± 2.2 ng/mg‐liver
same,Mortality,"[3]; 25.3 μg/L measured, 21 d",0.0%
same,"Mortality, number of dead fish","[3]; 25.3 μg/L measured, 21 d",0
same,Number of fertilized eggs (per female per day),"[3]; 25.3 μg/L measured, 21 d",24 ± 3.5
same,Number of total eggs (per female per day),"[3]; 25.3 μg/L measured, 21 d",26 ± 3.2
same,SSC female (joint plates with papillary processes),"[3]; 25.3 μg/L measured, 21 d",0 ± 0
same,SSC male (joint plates with papillary processes),"[3]; 25.3 μg/L measured, 21 d",99 ± 4.1
same,Fertility rate,"[3]; 82.3 μg/L measured, 21 d",92 ± 2.1%
same,"Hepatic VTG, female","[3]; 82.3 μg/L measured, 21 d","4,380 ± 1,350 ng/mg‐liver"
same,Mortality,"[3]; 82.3 μg/L measured, 21 d",4.2%
same,"Mortality, number of dead fish","[3]; 82.3 μg/L measured, 21 d",1
same,Number of fertilized eggs (per female per day),"[3]; 82.3 μg/L measured, 21 d",24 ± 1.5
same,Number of total eggs (per female per day),"[3]; 82.3 μg/L measured, 21 d",27 ± 1.3
same,SSC female (joint plates with papillary processes),"[3]; 82.3 μg/L measured, 21 d",0 ± 0
same,"Hepatic VTG, male","[3]; 82.3 μg/L measured, 21 d, sig. ↑ vs control",5.6 ± 1.9 ng/mg‐liver
same,Fertility rate,"[3]; 250 μg/L measured, 21 d",89 ± 3.3%
same,"Hepatic VTG, female","[3]; 250 μg/L measured, 21 d","5,290 ± 2030 ng/mg‐liver"
same,Mortality,"[3]; 250 μg/L measured, 21 d",0.0%
same,"Mortality, number of dead fish","[3]; 250 μg/L measured, 21 d",0
same,Number of fertilized eggs (per female per day),"[3]; 250 μg/L measured, 21 d",21 ± 2.6
same,Number of total eggs (per female per day),"[3]; 250 μg/L measured, 21 d",23 ± 2.6
same,SSC female (joint plates with papillary processes),"[3]; 250 μg/L measured, 21 d",0 ± 0
same,SSC male (joint plates with papillary processes),"[3]; 250 μg/L measured, 21 d",98 ± 8.5
same,"LOEC, elevated hepatic VTG in males",[3]; 21 d,82.3 µg/L
same,LOECREPRO,[3]; LOEC on reproduction (fecundity and/or fertility),ND (>250) μg/L
same,minimal effective concentration,"[3]; Oryzias latipes, 504 h, read-out: LOECmVTG",0.0823 µg/mL
same,LOECTOX,[3]; lowest observed effect concentration on mortality,ND (>250) μg/L
same,GSI Female,[3]; [4],11.4 ± 1.6%
same,GSI Male,[3]; [4],0.83 ± 0.11%
same,HSI Female,[3]; [4],4.6 ± 0.82%
same,HSI Male,[3]; [4],2.1 ± 0.16%
same,Length Female,[3]; [4],37.8 ± 0.5 mm
same,Length Male,[3]; [4],37.0 ± 0.9 mm
same,Weight Female,[3]; [4],625 ± 55 mg
same,Weight Male,[3]; [4],608 ± 31 mg
same,GSI Female,[3]; [5],10.7 ± 0.4%
same,GSI Male,[3]; [5],0.81 ± 0.08%
same,HSI Female,[3]; [5],4.1 ± 0.58%
same,HSI Male,[3]; [5],2.6 ± 0.10%
same,Length Female,[3]; [5],37.0 ± 0.2 mm
same,Length Male,[3]; [5],37.9 ± 0.6 mm
same,Weight Female,[3]; [5],599 ± 16 mg
same,Weight Male,[3]; [5],630 ± 44 mg
same,GSI Female,[3]; [6],11.1 ± 2.0%
same,GSI Male,[3]; [6],0.81 ± 0.08%
same,HSI Female,[3]; [6],4.5 ± 0.29%
same,HSI Male,[3]; [6],2.9 ± 0.28%
same,Length Female,[3]; [6],36.7 ± 0.5 mm
same,Length Male,[3]; [6],37.4 ± 0.4 mm
same,Weight Female,[3]; [6],605 ± 10 mg
same,Weight Male,[3]; [6],626 ± 21 mg
"C[C@]12CC(=O)[C@H]3[C@@H](CCC4=CC(=O)CC[C@@]43C)[C@@H]1CC[C@@H]2O [Chemical 11KT, 11‐ketotestosterone, reference compound]",EC50,"[1]; read-out: Agonistic activity EC50, geometric mean, positive control, n = 5",5.8 nM
